Data reported in patent publication US20060148766A1 (priority 2002, published 2006).

Test system: living body
Experiment: Toxicity test
Details: in vivo

SMILES: CN(C)c1ccc(O)c2c1C[C@H]1C[C@H]3[C@H](N(C)C)C(O)=C(C(N)=O)C(=O)[C@@]3(O)C(O)=C1C2=O [minocycline]
- side effects on the living body: no particular side effects
